The values that follow come from patent US10660874B2, “Ecteinamycin, compositions and uses thereof” (Wisconsin Alumni Research Foundation, priority 2014, dated 2020).

The subject of one data set is E. coli (ATCC #25922). Description: MIC, dilution antimicrobial susceptibility test. The class given is cell-based. The conditions noted are these: Escherichia coli, ATCC25922, 33° C., 18 h. The method, then: (§1) Ecteinamycin was tested for antibacterial activity against C. difficile (ATCC BAA-1870), MRSA (ATCC #33591), MSSA (ATCC #29213), E. coli (ATCC #25922), P. aeruginosa (ATCC #27853), and VRE (ATCC), and MICs were determined using a dilution antimicrobial susceptibility test for aerobic (MRSA, MSSA, E. coli, P. aeruginosa, and VRE) and anaerobic (C. difficile) bacteria. Ecteinamycin was dissolved in DMSO, serially diluted to 10 concentrations (0.0313-32 μg/mL), and tested in a 96-well plate. […] Ecteinamycin and vancomycin were tested in triplicate. Six untreated media controls were included on each plate. For MRSA, MSSA, E. coli, and P. aeruginosa, the plates were incubated at 33° C. for 18 h. For C. difficile, the plate was incubated at 36° C. for 48 h anaerobically and then read visually using a mirror apparatus. All manipulations to the plate were done inside the anaerobe chamber. The MIC was determined as the lowest concentration that inhibited visible growth.

Data set [1] relates to P. aeruginosa (ATCC #27853). As to the kind of experiment: MIC, dilution antimicrobial susceptibility test. It is filed as cell-based. The following applies: Pseudomonas aeruginosa, ATCC27853, 33° C., 18 h. The procedure: as §1
The subject of the next data set is MSSA (ATCC #29213). As to the kind of experiment: MIC, dilution antimicrobial susceptibility test. It is filed as cell-based, Methicillin-sensitive Staphylococcus aureus. The following applies: Methicillin-sensitive Staphylococcus aureus (MSSA); 33° C., 18 h; read-out: MIC. The procedure:
as §1

Data set [2] is described as follows: Lethality of intravenous injection in mice. The class given is in vivo. The following applies: 5 mg/kg IV. The procedure: Eight-to-nine-week-old FVB female mice weighing 20.5 to 25.6 g were used for all studies. Animals were maintained in accordance with the American Association for Accreditation of Laboratory Care criteria. Animal studies were approved by the University of Wisconsin Animal Care Committee.
Ecteinamycin was formulated with polyethylene glycol (PEG) 300, 25 mM Tris (1:1), pH 8.9. Mice were treated orally at 5 mg/kg or by retro-orbital intravenous injection at 2.5 mg/kg. Retro-orbital intravenous injection at 5 mg/kg was lethal. After 30 mins and 1 h, approximately 400 μL of blood was collected from the chest cavity in BD microtainer tubes with lithium heparin. Blood was centrifuged at 10,000 rpm for 10 mins Fifty μL of supernatant was added to 200 μL of acetonitrile (containing 0.1% formic acid) in a new polypropylene tube, vortexed for 1 min, and centrifuged for 10 mins at 14,000 rpm at 4° C. One hundred μL was transferred to a 96 well polypropylene microplate, 100 μL of H2O was added, and the plate was covered and shaken for 1 min and placed in the autosampler for analysis. […] Sample quantitation was determined by weighted (R^2) linear regression using a 9-point curve. […] The % oral bioavailability was calculated from the concentration of ecteinamycin (adjusted for dose) in plasma between oral and IV dose: [ecteinamycinoral]/[ecteinamycinIV]×100. […]

For another data set, the system named is MRSA (ATCC #33591). Description: MIC, dilution antimicrobial susceptibility test. The class given is cell-based, Methicillin-resistant Staphylococcus aureus. The following applies: Staphylococcus aureus, 18 h. The method, then:
as §1

Data set [3] relates to C. difficile (ATCC BAA-1870). As to the kind of experiment: MIC, anaerobic dilution antimicrobial susceptibility test. It is filed as cell-based. The conditions noted are these: Clostridioides difficile. The method, then:
as §1

Values after ≈ are worked out from the molar mass of the structure shown. Bounds are passed on as bounds.

On to `C=C1OC(=O)C(C(=O)CC2OC(C(C)C(O)C(CC)C(=O)C(C)(O)C3CCC(CC)(C4CCC(O)(C(C)OC)C(C)O4)O3)C(C)CC2C)=C1O` (stereo not shown) [ecteinamycin], for which the minimal inhibitory concentration (MIC) with E. coli (ATCC #25922) was 16 µg/mL (≈ 22.6 µM); in data set [1], 8 µg/mL (≈ 11.3 µM); in the data set with MSSA (ATCC #29213) it was 0.125 µg/mL (≈ 0.176 µM); with MRSA (ATCC #33591) it was 0.125 µg/mL (≈ 0.176 µM); in data set [3] (ATCCBAA1870) it was at most 0.031 µg/mL; in data set [3] (ATCCBAA1870, 36° C., 48 h anaerobically), at most 0.0313 µg/mL. Besides, the “lethality of retro-orbital intravenous injection” value in data set [2] was “lethal”.

A word on the MIC: it is the lowest concentration found to suppress growth.
